Results reported in patent US10633338B2, “Binding Function 3 (BF3) site compounds as therapeutics and methods for their use” (THE UNIVERSITY OF BRITISH COLUMBIA, priority 2014, dated 2020).
Where two headings read alike, the source gives them in different places.

Legend:
[1] = target: T1, androgen receptor (AR) (Homo sapiens, UniProt P10275, T878A); assay: eGFP cellular AR transcription assay; assay type: cell-based
T1 construct: stably transfected eGFP-expressing LNCaP human prostate cancer cells (LN-ARR2PB-eGFP) containing an androgen responsive probasin-derived promoter; endogenous in cells; host or cells: LNCaP (LN-ARR2PB-eGFP)
T1 sequence (P10275 1-920 T878A): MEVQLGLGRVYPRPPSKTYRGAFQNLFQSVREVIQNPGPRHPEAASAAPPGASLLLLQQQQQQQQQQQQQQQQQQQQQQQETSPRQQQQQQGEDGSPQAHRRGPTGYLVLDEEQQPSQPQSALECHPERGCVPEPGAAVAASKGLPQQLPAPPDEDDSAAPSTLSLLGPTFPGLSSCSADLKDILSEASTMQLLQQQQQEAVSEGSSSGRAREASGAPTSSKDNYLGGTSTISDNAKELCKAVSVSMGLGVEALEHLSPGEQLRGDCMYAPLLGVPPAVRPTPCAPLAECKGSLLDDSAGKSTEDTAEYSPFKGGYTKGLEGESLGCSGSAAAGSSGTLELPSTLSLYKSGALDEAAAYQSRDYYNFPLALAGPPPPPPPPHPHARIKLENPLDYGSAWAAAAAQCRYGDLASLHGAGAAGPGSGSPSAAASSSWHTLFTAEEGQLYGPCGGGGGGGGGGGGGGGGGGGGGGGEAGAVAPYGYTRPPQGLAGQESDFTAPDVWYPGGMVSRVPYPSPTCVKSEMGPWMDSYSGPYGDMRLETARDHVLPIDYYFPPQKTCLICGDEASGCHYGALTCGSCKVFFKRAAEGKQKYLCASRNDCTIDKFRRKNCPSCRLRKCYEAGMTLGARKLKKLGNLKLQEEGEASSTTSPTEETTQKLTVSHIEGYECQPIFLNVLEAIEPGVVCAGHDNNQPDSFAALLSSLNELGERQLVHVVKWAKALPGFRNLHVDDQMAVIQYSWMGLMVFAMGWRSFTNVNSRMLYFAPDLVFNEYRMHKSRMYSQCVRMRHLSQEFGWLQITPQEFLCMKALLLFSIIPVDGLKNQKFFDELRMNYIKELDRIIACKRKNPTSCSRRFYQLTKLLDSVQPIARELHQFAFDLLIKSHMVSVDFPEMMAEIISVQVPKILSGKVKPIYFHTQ
In short: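 AR transcriptional activity is read as eGFP expression from a probasin-derived androgen-responsive promoter. Compound titrated 0-100 μM in the presence of 0.1 nM R1881; 35,000 cells/well.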

[2] = test system: PSA; assay: Prostate Surface Antigen (PSA) assay, PSA excreted into the media; assay type: cell-based, human; conditions: same plates as eGFP assay
Method: The evaluation of PSA excreted into the media was performed in parallel to the eGFP assay using the same plates (see above description). After the cells were incubated for 3 days 150 μl of the media was taken from each well, and added to 150 μl of PBS.

[3] = LN-ARR2PBeGFP LNCaP cells, 0.1 nM R1881, 3 days incubation
[4] = PSA excreted into media, 3 days incubation
[5] = LN-ARR2PBeGFP LNCaP cells, 0.1 nM R1881, 3 days incubation, read-out: eGFP IC50
[6] = Homo sapiens, 72 h, PSA excreted into media, 3 days incubation, read-out: PSA IC50
[7] = LN-ARR2PB-eGFP LNCaP cells, 0.1 nM R1881, 3 days, 0-100 μM compound, read-out: IC50 (eGFP)
[8] = Homo sapiens, 72 h, media after 3 days, read-out: IC50 (PSA)
[9] = PSA excreted into media, 3 days incubation, read-out: PSA IC50

SMILES	IC50 [1, 5] [nM]	IC50 [2, 6] [nM]	further results
Cc1cc(Cl)c2[nH]ccc2c1 [Compound 13724]			eGFP IC50 [1, 3]: Inactive; PSA IC50 [2, 4]: Inactive
Cc1c(F)ccc2c(-c3ccc4cccc(F)c4n3)c[nH]c12 [Compound 13635]			eGFP IC50 [1, 3]: Inactive; PSA IC50 [2, 4]: Inactive
Cc1cc(F)c2[nH]cc(-c3ccc4ccccc4n3)c2c1 [Compound 13612]	1440	813	
CCc1cccc2c(-c3ccc4ccccc4n3)c[nH]c12 [Compound 13567]	200	230	
Cc1ccc2[nH]cc(C3Nc4ccccc4C3(C)C)c2c1 (stereo not shown) [Compound 13535]	1500	1870	
CC1(C)c2cc(Br)ccc2NC1c1cn(S(=O)(=O)C[C@]23CC[C@@H](CC2=O)C3(C)C)c2ccccc12 (stereo partly shown) [Compound 13524]	4900	6650	
Cc1cc(F)cc2c(-c3cnc4cccc(Cl)c4n3)c[nH]c12 [Compound 13705]			eGFP IC50 [1, 3]: Inactive; PSA IC50 [2, 4]: Inactive
Brc1ccc(-c2c[nH]c3cccnc23)cc1 [13 737]			IC50 [1, 7]: 80 nM; IC50 [2, 8]: 37 nM
Cc1cccc2c(-c3nc4ccccc4cc3O)c[nH]c12 [Compound 13661]			eGFP IC50 [1, 3]: Inactive; PSA IC50 [2, 4]: Inactive
CC1(C)c2ccccc2NC1c1c[nH]c2ccc(Br)cc12 (stereo not shown) [Compound 13510]	2500	1540	
Oc1cccc2c(C3Nc4ccccc4C34CCCCC4)c[nH]c12 (stereo not shown) [13 552]			IC50 [1, 7]: 1100 nM; IC50 [2, 8]: 1140 nM
FC(F)(F)c1ccc(-c2c[nH]c3ccccc23)nc1 [Compound 13741]	290	290	
Cc1cccc2c(-c3cnc4ccccc4n3)c[nH]c12 [Compound 13585]	110	39	
Fc1cccc2ccc(-c3c[nH]c4ccccc34)nc12 [Compound 13688]	69	68	
Fc1ccc(CSc2c[nH]c3ccccc23)cc1 [Compound 13410]	1200	2030	
Cc1cccc2c(-c3nc4ccccc4s3)c[nH]c12 [Compound 13760]	100	52	
CC1(C)c2ccccc2NC1c1c[nH]c2ncccc12 (stereo not shown) [13 556]			IC50 [1, 7]: 2100 nM; IC50 [2, 8]: 2180 nM
c1ccc2cc(-c3c[nH]c4cccnc34)ccc2c1 [13 703]			IC50 [1, 7]: 100 nM; IC50 [2, 8]: 97 nM
Cc1cccc2c(-c3ccc4cccnc4c3)c[nH]c12 [13 744]			IC50 [1, 7]: 760 nM; IC50 [2, 8]: 750 nM

SMILES	IC50 [1, 5] [nM]	IC50 [2, 6] [nM]	further results
CC1(C)c2cc(Br)ccc2NC1c1c[nH]c2ccc([N+](=O)[O-])cc12 (stereo not shown) [Compound 13530]	4700	1600	
c1ccc2c(-c3nn[nH]n3)c[nH]c2c1 [Compound 13701]			eGFP IC50 [1, 3]: Inactive; PSA IC50 [2, 4]: Inactive
Fc1cccc2nc(-c3c[nH]c4ccccc34)ccc12 [Compound 13690]			eGFP IC50 [1, 3]: Inactive; PSA IC50 [2, 4]: Inactive
Cc1cccc2c(C3Nc4ccccc4C34CCCCC4)c[nH]c12 (stereo not shown) [Compound 13549]	1700	2570	
CN1c2ccccc2C[C@@H]1c1c[nH]c2ccccc12 [Compound 13164-B]	1300	1590	
CC1(C)c2ccccc2NC1c1c[nH]c2ccccc12 (stereo not shown) [Compound 13506]	180	600	
Cc1cccc2c(-c3ccc4c(Br)cccc4n3)c[nH]c12 [13 678]			IC50 (eGFP) ([1]; LN-ARR2PB-eGFP LNCaP cells, 0.1 nM R1881, 3 days, 0-100 μM compound): IC50 (eGFP) = Inactive; IC50 (PSA) ([2]; media after 3 days): IC50 (PSA) = Inactive
Fc1c(Cl)ccc2c(-c3ccc4ccccc4n3)c[nH]c12 [Compound 13613]	11500	1740	
Cc1cccc2c(C3Nc4ccccc4C34CCCCC4)c[nH]c12 (stereo not shown) [13 549]			IC50 [1, 7]: 1700 nM; IC50 [2, 8]: 2570 nM
Fc1cccc2nc(-c3c[nH]c4c(Cl)cccc34)ccc12 [Compound 13712]			eGFP IC50 [1, 3]: Inactive; PSA IC50 [2, 4]: Inactive
O=C(O)c1cccc2nc(-c3c[nH]c4c(F)cc(F)cc34)ccc12 [Compound 13666]			eGFP IC50 [1, 3]: Inactive; PSA IC50 [2, 4]: Inactive
N#C/C(=C\c1ccc(F)cc1)c1c[nH]c2ccccc12 [Compound 13436]		400	IC50 ([1]; eGFP IC50, LN-ARR2PBeGFP LNCaP cells, 0.1 nM R1881, 3 days incubation): 600 nM
CC1(C)c2ccccc2NC1c1c[nH]c2c(CO)cccc12 (stereo not shown) [Compound 13558]	1600	2100	
c1ccc2cc(-c3n[nH]c4ccccc34)ccc2c1 [Compound 13674]	75	51	
Cc1cccc2c(-c3ccc4c(C#N)cccc4n3)c[nH]c12 [Compound 13598]			eGFP IC50 [1, 3]: Inactive; PSA IC50 [2, 4]: Inactive
O=[N+]([O-])c1cccc2nc(-c3c[nH]c4c(Cl)cc(F)cc34)ccc12 [Compound 13667]			eGFP IC50 [1, 3]: Inactive; PSA IC50 [2, 4]: Inactive
Cc1cccc2c(-c3ccc(-c4ccccc4)cc3)c[nH]c12 [13 733]			IC50 [1, 7]: 3810 nM; IC50 [2, 8]: 919 nM
CC1(C)c2cc(Br)ccc2NC1c1c[nH]c2ccccc12 (stereo not shown) [Compound 13511]	3000	1900	
O=[N+]([O-])c1cccc2c(-c3ccc(Br)cc3)c[nH]c12 [Compound 13738]	83	62	

SMILES	IC50 [1, 5] [nM]	IC50 [2, 6] [nM]	further results
CC1(C)C(c2c[nH]c3ncccc23)=Nc2ccccc21 [Compound 13537]	700	806	
Cc1cccc2c(-c3nc4ccccc4s3)c[nH]c12 [13 760]			IC50 [1, 7]: 100 nM; IC50 ([2]; media after 3 days, read-out: IC50 (PSA)): 520 nM
CC1(C)c2ccccc2NC1c1c[nH]c2cc(Cl)ccc12 (stereo not shown) [Compound 13521]	400	260	
Cc1cc2ccccc2nc1-c1c[nH]c2c(C)cccc12 [Compound 13596]			eGFP IC50 [1, 3]: Inactive; PSA IC50 [2, 4]: Inactive
Cc1cccc2c(-c3cnc4ccccc4n3)c[nH]c12 [Compound 13699]	73		IC50 [2, 9]: 73 nM
Fc1cccc2ccc(-c3c[nH]c4c(F)cccc34)nc12 [Compound 13697]	29	29	
CNC(=O)c1cccc2nc(-c3c[nH]c4c(F)cc(F)cc34)ccc12 [Compound 13696]	42	42	
Cc1cc(C)c2nc(-c3c[nH]c4c(C)c(F)ccc34)ccc2c1 [Compound 13636]			eGFP IC50 [1, 3]: Inactive; PSA IC50 [2, 4]: Inactive
CNC(=O)c1cccc2nc(-c3c[nH]c4c(C#N)cc(F)cc34)ccc12 [Compound 13731]	304	255	
Fc1ccc2nc(-c3c[nH]c4c(F)c(F)c(F)cc34)ccc2c1 [Compound 13776]	210		IC50 [2, 9]: 190 nM
Fc1ccc2c(-c3ccc4ccccc4n3)c[nH]c2c1 [13 576]			IC50 [1, 7]: 144 nM; IC50 [2, 8]: 48 nM
NC(=O)c1cccc2nc(-c3c[nH]c4c(Cl)cc(F)cc34)ccc12 [Compound 13746]			eGFP IC50 [1, 3]: Inactive; PSA IC50 [2, 4]: Inactive
Fc1ccc2ccc(-c3c[nH]c4c(Cl)cccc34)nc2c1 [Compound 13694]	70	67	
Cc1cccc2c(-c3ccc4ocnc4c3)c[nH]c12 [Compound 13759]	300	270	
Fc1ccc2[nH]cc(-c3cc4ccccc4[nH]3)c2c1 [Compound 13500]	1230	410	
CC1(C)c2ccccc2NC1c1c[nH]c2ncccc12 (stereo not shown) [Compound 13556]	2110		IC50 [2, 9]: 2180 nM
CC1(C)c2ccccc2NC1c1c[nH]c2ccc(Cl)cc12 (stereo not shown) [Compound 13522]	3400	2190	
Oc1cc2ccccc2nc1-c1c[nH]c2cc(F)c(F)cc12 [Compound 13629]	4900	1780	
